The target of one assay is PI3K delta (Homo sapiens (Human), UniProt O00329). As to the kind of experiment: Enzymatic PI3K delta isoform inhibition (lipid kinase activity, Kinase-Glo luminescence). As to conditions: Enzymatic assay. The format is biochemical. Summed up:
(§1)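 ATP-depletion format: 10 nM PI3K with 5 μg/mL phosphatidylinositol and 2 μM ATP, run to ~50% ATP consumption, then Kinase-Glo added and remaining ATP read by luminescence after 5 min. IC50 from 4-parameter logistic fit, typically over 8 concentrations 10–0.003 μM.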
(In general: Kinase-Glo reads ATP consumption through a luciferase reaction.)

For a further assay, the target named is PI3K alpha (Homo sapiens (Human), UniProt P42336). Briefly: Enzymatic PI3K alpha isoform inhibition (lipid kinase activity, Kinase-Glo luminescence). The format is biochemical. As to conditions: Enzymatic assay. The method, boiled down:
as §1

Structures are written as SMILES.

Sequence of PI3K alpha (P42336 other isoform, or with tags, fused parts or gaps): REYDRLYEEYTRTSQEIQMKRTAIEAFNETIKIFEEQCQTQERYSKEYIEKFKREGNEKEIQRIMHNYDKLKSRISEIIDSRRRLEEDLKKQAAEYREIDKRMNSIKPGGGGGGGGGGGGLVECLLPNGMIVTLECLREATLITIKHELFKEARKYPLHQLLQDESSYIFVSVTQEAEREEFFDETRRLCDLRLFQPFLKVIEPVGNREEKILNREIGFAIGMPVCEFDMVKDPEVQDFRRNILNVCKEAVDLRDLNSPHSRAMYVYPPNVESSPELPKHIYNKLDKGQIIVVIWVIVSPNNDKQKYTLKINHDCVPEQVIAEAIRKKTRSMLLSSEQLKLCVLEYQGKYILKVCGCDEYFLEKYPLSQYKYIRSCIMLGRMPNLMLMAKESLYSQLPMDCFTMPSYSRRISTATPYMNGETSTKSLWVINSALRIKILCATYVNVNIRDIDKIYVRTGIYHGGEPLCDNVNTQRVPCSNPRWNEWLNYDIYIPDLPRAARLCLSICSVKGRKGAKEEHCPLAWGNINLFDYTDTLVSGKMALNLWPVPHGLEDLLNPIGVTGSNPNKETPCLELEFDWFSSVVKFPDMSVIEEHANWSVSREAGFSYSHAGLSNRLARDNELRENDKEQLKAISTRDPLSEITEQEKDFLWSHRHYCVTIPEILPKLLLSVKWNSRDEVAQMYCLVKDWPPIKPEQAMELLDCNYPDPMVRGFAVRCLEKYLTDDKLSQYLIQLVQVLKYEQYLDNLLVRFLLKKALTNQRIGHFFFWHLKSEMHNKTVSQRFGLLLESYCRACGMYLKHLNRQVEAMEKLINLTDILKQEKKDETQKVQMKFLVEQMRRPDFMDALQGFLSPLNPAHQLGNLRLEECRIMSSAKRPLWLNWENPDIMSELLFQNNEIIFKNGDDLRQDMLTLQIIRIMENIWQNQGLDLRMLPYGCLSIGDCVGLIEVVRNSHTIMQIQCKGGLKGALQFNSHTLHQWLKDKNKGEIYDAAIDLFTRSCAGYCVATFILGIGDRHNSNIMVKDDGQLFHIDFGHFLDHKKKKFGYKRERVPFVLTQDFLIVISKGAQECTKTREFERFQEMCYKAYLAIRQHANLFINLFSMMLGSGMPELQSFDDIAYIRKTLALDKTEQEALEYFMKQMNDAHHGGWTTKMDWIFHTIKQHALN
Sequence of PI3K delta (O00329 other isoform, or with tags, fused parts or gaps linker GGGGGG): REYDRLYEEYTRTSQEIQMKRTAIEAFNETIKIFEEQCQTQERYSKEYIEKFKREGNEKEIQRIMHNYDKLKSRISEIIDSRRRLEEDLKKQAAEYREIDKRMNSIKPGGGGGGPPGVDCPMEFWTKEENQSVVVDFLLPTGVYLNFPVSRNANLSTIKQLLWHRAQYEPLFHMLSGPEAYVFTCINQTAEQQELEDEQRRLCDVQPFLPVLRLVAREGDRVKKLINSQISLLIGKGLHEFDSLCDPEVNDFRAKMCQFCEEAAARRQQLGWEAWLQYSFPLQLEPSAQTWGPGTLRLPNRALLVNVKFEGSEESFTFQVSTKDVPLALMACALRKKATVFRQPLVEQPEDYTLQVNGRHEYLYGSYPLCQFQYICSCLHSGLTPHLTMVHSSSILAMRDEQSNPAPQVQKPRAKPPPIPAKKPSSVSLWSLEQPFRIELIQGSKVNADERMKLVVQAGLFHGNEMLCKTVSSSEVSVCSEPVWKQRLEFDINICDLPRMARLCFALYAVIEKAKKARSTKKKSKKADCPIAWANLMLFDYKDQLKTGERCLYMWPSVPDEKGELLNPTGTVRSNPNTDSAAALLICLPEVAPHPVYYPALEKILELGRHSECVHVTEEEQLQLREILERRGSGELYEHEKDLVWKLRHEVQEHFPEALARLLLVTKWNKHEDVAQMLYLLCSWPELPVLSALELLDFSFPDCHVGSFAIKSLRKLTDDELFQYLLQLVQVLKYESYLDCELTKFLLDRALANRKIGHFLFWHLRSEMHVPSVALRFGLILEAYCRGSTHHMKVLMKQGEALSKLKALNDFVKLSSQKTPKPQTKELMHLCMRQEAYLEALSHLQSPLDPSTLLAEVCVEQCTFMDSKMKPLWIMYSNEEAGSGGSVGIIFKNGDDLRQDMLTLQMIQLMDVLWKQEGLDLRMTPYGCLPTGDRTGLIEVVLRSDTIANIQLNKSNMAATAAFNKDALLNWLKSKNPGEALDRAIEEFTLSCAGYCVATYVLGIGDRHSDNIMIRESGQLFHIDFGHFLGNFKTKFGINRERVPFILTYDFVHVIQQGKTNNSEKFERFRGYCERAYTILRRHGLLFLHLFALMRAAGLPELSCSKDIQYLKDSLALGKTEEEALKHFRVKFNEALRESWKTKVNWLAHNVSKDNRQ

The IC50 is the midpoint of a concentration-inhibition curve. Low readings indicate higher potency, high ones lower potency. Regarding `COc1ncc(N2CCOc3ccc(O[C@H]4CCN(C(=O)c5cn(C)nc5C)C4)cc32)cc1C#N` [Example C18, 5-{6-[(S)-1-(1,3-Dimethyl-1H-pyrazole-4-carbonyl)-pyrrolidin-3-yloxy]-2,3-dihydro-benzo[1,4]oxazin-4-yl}-2-methoxy-nicotinonitrile], the results for the 50% inhibitory concentration (IC50) on PI3K delta and at PI3K alpha were 12 nM and 425 nM, respectively.
Turning to `COc1ncc(N2CCOc3ccc(O[C@H]4CCN(C(=O)C5CNC(=O)C5)C4)cc32)cc1C#N` (stereo partly drawn) [Example C19, 2-Methoxy-5-{6-[(S)-1-(5-oxo-pyrrolidine-3-carbonyl)-pyrrolidin-3-yloxy]-2,3-dihydro-benzo[1,4]oxazin-4-yl}-nicotinonitrile], the results for the 50% inhibitory concentration (IC50) against PI3K delta and against PI3K alpha were 21 nM and 488 nM, respectively.
The like results for `COc1ncc(N2CCOc3ccc(O[C@H]4CCN(C(=O)c5oc(C)nc5C)C4)cc32)cc1C#N` [Example C20, 5-{6-[(S)-1-(2,4-Dimethyl-oxazole-5-carbonyl)-pyrrolidin-3-yloxy]-2,3-dihydro-benzo[1,4]oxazin-4-yl}-2-methoxy-nicotinonitrile] were, in that order, 6 nM and 193 nM.
With `COc1ncc(N2CCOc3ccc(O[C@H]4CCN(C(=O)C5=CC(=O)CC(C)(C)O5)C4)cc32)cc1C#N` [Example C21, 5-{6-[(S)-1-(6,6-Dimethyl-4-oxo-5,6-dihydro-4H-pyran-2-carbonyl)-pyrrolidin-3-yloxy]-2,3-dihydro-benzo[1,4]oxazin-4-yl}-2-methoxy-nicotinonitrile], the 50% inhibitory concentration (IC50) at PI3K delta came out at 28 nM; on PI3K alpha, 698 nM.
The like results for `COc1ncc(N2CCOc3ccc(O[C@H]4CCN(C(=O)c5cnn6cccnc56)C4)cc32)cc1C#N` [Example C22, 2-Methoxy-5-{6-[(S)-1-(pyrazolo[1,5-a]pyrimidine-3-carbonyl)-pyrrolidin-3-yloxy]-2,3-dihydro-benzo[1,4]oxazin-4-yl}-nicotinonitrile] were, in that order, 20 nM and 202 nM.
The corresponding values for `COc1ncc(N2CCOc3ccc(O[C@H]4CCN(C(=O)C5CCC(=O)N5)C4)cc32)cc1C#N` (stereo partly drawn) [Example C23, 2-Methoxy-5-{6-[(S)-1-(5-oxo-pyrrolidine-2-carbonyl)-pyrrolidin-3-yloxy]-2,3-dihydro-benzo[1,4]oxazin-4-yl}-nicotinonitrile] are 32 nM and 658 nM.
The corresponding values for `COc1ncc(N2CCOc3ccc(O[C@H]4CCN(C(=O)C5COCCO5)C4)cc32)cc1C#N` (stereo partly drawn) [Example C24, 5-{6-[(S)-1-([1,4]Dioxane-2-carbonyl)-pyrrolidin-3-yloxy]-2,3-dihydro-benzo[1,4]oxazin-4-yl}-2-methoxy-nicotinonitrile] are 3 nM and 560 nM.
On to `COc1ncc(N2CCOc3ccc(O[C@H]4CCN(C(=O)C5COCCO5)C4)cc32)cc1C#N` (stereo partly drawn) [Example C25, 5-{6-[(S)-1-([1,4]Dioxane-2-carbonyl)-pyrrolidin-3-yloxy]-2,3-dihydro-benzo[1,4]oxazin-4-yl}-2-methoxy-nicotinonitrile], for which the IC50 against PI3K delta was found to be 12.5 nM; against PI3K alpha, 474 nM.
For `COc1ncc(N2CCOc3ccc(O[C@H]4CCN(C(=O)C5CCCOC5)C4)cc32)cc1C#N` (stereo partly drawn) [Example C26, 2-Methoxy-5-{6-[(S)-1-(tetrahydro-pyran-3-carbonyl)-pyrrolidin-3-yloxy]-2,3-dihydro-benzo[1,4]oxazin-4-yl}-nicotinonitrile], the IC50 against PI3K delta came to 3220 nM; against PI3K alpha it was 6950 nM.
The like results for `COc1ccc(N2CCOc3ccc(O[C@H]4CCN(C(=O)CN5CCOCC5)C4)cc32)cn1` [Example D2, 1-{(S)-3-[4-(6-Methoxy-pyridin-3-yl)-3,4-dihydro-2H-benzo[1,4]oxazin-6-yloxy]-pyrrolidin-1-yl}-2-morpholin-4-yl-ethanone] were, in that order, 149 nM and 2740 nM.
For `COc1ccc(N2CCOc3ccc(O[C@H]4CCN(C(=O)CN(C)C)C4)cc32)cn1` [Example D3, 2-Dimethylamino-1-{(S)-3-[4-(6-methoxy-pyridin-3-yl)-3,4-dihydro-2H-benzo[1,4]oxazin-6-yloxy]-pyrrolidin-1-yl}-ethanone], the results for the IC50 on PI3K delta and on PI3K alpha were 219 nM and 4420 nM, respectively.
The like results for `COc1ncc(N2CCOc3ccc(O[C@H]4CCN(C(=O)C5CCN(C(C)=O)CC5)C4)cc32)cc1C#N` [Example D5, 5-{6-[(S)-1-(1-Acetyl-piperidine-4-carbonyl)-pyrrolidin-3-yloxy]-2,3-dihydro-benzo[1,4]oxazin-4-yl}-2-methoxy-nicotinonitrile] were, in that order, 42 nM and 802 nM.
As for `COc1ncc(N2CCOc3ccc(O[C@H]4CCN(C(=O)CN(C)C)C4)cc32)cc1C#N` [Example D6, 5-{6-[(S)-1-(2-Dimethylamino-acetyl)-pyrrolidin-3-yloxy]-2,3-dihydro-benzo[1,4]oxazin-4-yl}-2-methoxy-nicotinonitrile], the 50% inhibitory concentration (IC50) came out at 9 nM at PI3K delta and 650 nM on PI3K alpha.
On to `COc1ncc(N2CCOc3ccc(O[C@H]4CCN(C(=O)CC(C)(C)C)C4)cc32)cc1C#N` [Example D9, 5-{6-[(S)-1-(3,3-Dimethyl-butyryl)-pyrrolidin-3-yloxy]-2,3-dihydro-benzo[1,4]oxazin-4-yl}-2-methoxy-nicotinonitrile], for which the values for the half-inhibitory concentration (IC50) at PI3K delta and against PI3K alpha were 15 nM and 494 nM, respectively.
For `COc1ncc(N2CCOc3ccc(O[C@H]4CCN(C(=O)CC(C)C)C4)cc32)cc1C#N` [Example D10, 2-Methoxy-5-{6-[(S)-1-(3-methyl-butyryl)-pyrrolidin-3-yloxy]-2,3-dihydro-benzo[1,4]oxazin-4-yl}-nicotinonitrile], the figures for the half-inhibitory concentration (IC50) against PI3K delta and at PI3K alpha were 62 nM and 385 nM, respectively.
For the molecule `COC(=O)N1CC[C@H](Oc2ccc3c(c2)N(c2cnc(OC)c(C#N)c2)CCO3)C1` [Example D11, (S)-3-[4-(5-Cyano-6-methoxy-pyridin-3-yl)-3,4-dihydro-2H-benzo[1,4]oxazin-6-yloxy]-pyrrolidine-1-carboxylic acid methyl ester], the IC50 was determined as 19 nM against PI3K delta and 442 nM against PI3K alpha.
On to `COCC(=O)N1CC[C@H](Oc2ccc3c(c2)N(c2cnc(OC)c(C#N)c2)CCO3)C1` [Example D12, 2-Methoxy-5-{6-[(S)-1-(2-methoxy-acetyl)-pyrrolidin-3-yloxy]-2,3-dihydro-benzo[1,4]oxazin-4-yl}-nicotinonitrile], for which the IC50 on PI3K delta is below 3 nM; against PI3K alpha, 142 nM.
For `COc1ncc(N2CCOc3ccc(O[C@H]4CCN(C(=O)C5CCCCC5)C4)cc32)cc1C#N` [Example D13, 5-[6-((S)-1-Cyclohexanecarbonyl-pyrrolidin-3-yloxy)-2,3-dihydro-benzo[1,4]oxazin-4-yl]-2-methoxy-nicotinonitrile], the half-inhibitory concentration (IC50) on PI3K delta was 5 nM; at PI3K alpha it was 522 nM.
As for `COc1ncc(N2CCOc3ccc(O[C@H]4CCN(C(=O)C(C)(C)O)C4)cc32)cc1C#N` [Example D15, 5-{6-[(S)-1-(2-Hydroxy-2-methyl-propionyl)-pyrrolidin-3-yloxy]-2,3-dihydro-benzo[1,4]oxazin-4-yl}-2-methoxy-nicotinonitrile], the IC50 at PI3K delta was determined as 58 nM; against PI3K alpha, 711 nM.
Turning to `COc1ncc(N2CCOc3ccc(O[C@H]4CCN(C(=O)C5CCS(=O)(=O)CC5)C4)cc32)cc1C#N` [Example D16, 5-{6-[(S)-1-(1,1-Dioxo-hexahydro-1lambda*6*-thiopyran-4-carbonyl)-pyrrolidin-3-yloxy]-2,3-dihydro-benzo[1,4]oxazin-4-yl}-2-methoxy-nicotinonitrile], the IC50 against PI3K delta amounted to 7 nM; on PI3K alpha, 503 nM.
As to `COc1ncc(N2CCOc3ccc(O[C@H]4CCN(C(=O)c5ccc(=O)n(C)c5)C4)cc32)cc1C#N` [Example D17, 2-Methoxy-5-{6-[(S)-1-(1-methyl-6-oxo-1,6-dihydro-pyridine-3-carbonyl)-pyrrolidin-3-yloxy]-2,3-dihydro-benzo[1,4]oxazin-4-yl}-nicotinonitrile], the IC50 was 12 nM at PI3K delta and 705 nM at PI3K alpha.
For the molecule `COc1ncc(N2CCOc3ccc(O[C@H]4CCN(C(=O)c5cocn5)C4)cc32)cc1C#N` [Example D18, 2-Methoxy-5-{6-[(S)-1-(oxazole-4-carbonyl)-pyrrolidin-3-yloxy]-2,3-dihydro-benzo[1,4]oxazin-4-yl}-nicotinonitrile], the IC50 on PI3K delta is 19 nM; against PI3K alpha it was 281 nM.
The corresponding values for `COc1ncc(N2CCOc3ccc(O[C@H]4CCN(C(=O)c5ccn(C)c(=O)c5)C4)cc32)cc1C#N` [Example D19, 2-Methoxy-5-{6-[(S)-1-(1-methyl-2-oxo-1,2-dihydro-pyridine-4-carbonyl)-pyrrolidin-3-yloxy]-2,3-dihydro-benzo[1,4]oxazin-4-yl}-nicotinonitrile] are 13 nM and 273 nM.
`COc1ncc(N2CCOc3ccc(O[C@H]4CCN(C(=O)c5ccc(=O)[nH]c5)C4)cc32)cc1C#N` [Example D20, 2-Methoxy-5-{6-[(S)-1-(6-oxo-1,6-dihydro-pyridine-3-carbonyl)-pyrrolidin-3-yloxy]-2,3-dihydro-benzo[1,4]oxazin-4-yl}-nicotinonitrile]: the 50% inhibitory concentration (IC50) was 7 nM against PI3K delta and 206 nM against PI3K alpha.
As for `COc1ncc(N2CCOc3ccc(O[C@H]4CCN(C(=O)c5cc[nH]c(=O)c5)C4)cc32)cc1C#N` [Example D21, 2-Methoxy-5-{6-[(S)-1-(2-oxo-1,2-dihydro-pyridine-4-carbonyl)-pyrrolidin-3-yloxy]-2,3-dihydro-benzo[1,4]oxazin-4-yl}-nicotinonitrile], the IC50 at PI3K delta came out at 41 nM; against PI3K alpha it was 519 nM.
The like results for `COc1ncc(N2CCOc3ccc(O[C@H]4CON(C(=O)C5CCOCC5)C4)cc32)cc1C#N` [Example D22, 2-Methoxy-5-{6-[(R)-2-(tetrahydro-pyran-4-carbonyl)-isoxazolidin-4-yloxy]-2,3-dihydro-benzo[1,4]oxazin-4-yl}-nicotinonitrile] were, in that order, 24 nM and 1020 nM.

Values taken from US9539260B2, “Dihydro-benzo-oxazine and dihydro-pyrido-oxazine derivatives” (Novartis AG, priority 2012, dated 2017).
